We go through 4 molecules from patent publication US9334300B2, “Vitamin B6 derivatives of nucleotides, acyclonucleotides and acyclonucleoside phosphonates” (MBC PHARMA, INC., priority 2011, dated 2016).

Each structure is given as a SMILES string.

Data set [1] deals with 22Rv1 cells. The data set is described as follows: MTS proliferation assay, 22Rv1 prostate cancer cells. It counts as cell-based. As to the method: (§1) In a 96-well plate, each well was prepared to contain 50 uL of 50,000 cells in media (HyClone IMDM Modified+4 mM L-Glu, HEPES with 10% Fetal Bovine Serum) to which was added 50 uL media containing either the free nucleoside (cytarabine or gemcitabine) or the conjugate (compound 3 or 16) that achieved the following final concentrations: 0, 0.1, 0.2, 0.5, 1, 3, 10, or 100 uM. The cells were incubated at 37° C. with 5% CO2 for 24, 48 or 72 hours (data trends similarly for all incubation periods while the 48 hour data is shown). The Promega MTS based proliferation assay kit (Promega; CellTiter 96® AQueous Non-Radioactive Cell Proliferation Assay (MTS)) was used as per manufacturer's instructions. In short, to each well 100 uL of MTS/PMS reagent was added and allowed to incubate for approximately 2 hours at 37° C. to achieve a colorimetric indication of active cell metabolism. This was quantitated by reading the visible absorption at 415 nm. The data (FIG. 1) was normalized to the absorption range defined from minimal absorbance (media absent cells and drug present), to maximum absorbance (media with cells in the absence of drug). All points were measured in triplicate and averaged before normalization to a 0-100% range. Data was plotted (FIG. 1) as percent inhibition versus log of the compound concentration. Where sigmodial curve fitting was possible, a four-parameter logistic non-linear regression model equation was used to generate the curves and IC50 values. […] The pulse chase experiments shown in FIG. 2 were done as described above with the one alteration that at either the 10 or 60 time point after addition of drug the media was replaced with drug-free media and the cells were allowed to continue incubation for a total of 48 hours. […] Data points were collected in quintuplicate; error bars show standard deviations. […] Sigmodial curve fitting employed a four-parameter logistic non-linear regression model equation.

For another data set, the system named is 5TGM1 cells. The data set is described as follows: MTS proliferation assay, multiple myeloma cell line. The data set is classed as cell-based, rodent. The conditions noted are these: 72 hours, FIG. 3. As to the method: In a 96-well plate, each well was prepared to contain 50 uL of 50,000 5TGM1 cells in media (HyClone IMDM Modified+4 mM L-Glu, HEPES with 10% Fetal Bovine Serum) to which was added 50 uL media containing cytarabine or compound 3 (MU004-26) that achieved the following final concentrations: 0, 0.1, 0.2, 0.5, 1, 3, 10, or 100 uM. The cells were incubated at 37° C. with 5% CO2 for 24, 48 or 72 hours (data trends similarly for all incubation periods while the 72 hour data is shown). The Promega […] based proliferation assay kit was used as per manufacturer's instructions. In short, to each well 100 uL of MTS/PMS reagent was added and allowed to incubate for approximately 2 hours at 37° C. to achieve a colorimetric indication of active cell metabolism. This was quantitated by reading the visible absorption at 415 nm. The data (FIG. 3) was normalized to the absorption range defined from minimal absorbance—media absent cells and drug present, to maximum absorbance—media with cells in the absence of drug. All points were measured in triplicate and averaged before normalization to a 0-100% range. Data was plotted (FIG. 3) as percent inhibition versus log of the compound concentration. As the FIG. 3 illustrates the Cytarabine IC50=0.5 uM while the Conjugate IC50=1 uM.
(Formazan colour is commonly taken as a measure of viable cells.)

A short description of data set [2]: Conjugate stability in saline and growth media (HPLC). It counts as physicochemical. The settings on record: for stability in buffers and media: over the time course of experiments. As to the method:
The rapid release of nucleoside or nucleotide from the conjugate into the growth media appeared to be ruled out. To test for this event conjugate 3 was incubated in isotonic saline, sterile media or media that was conditioned by 3 days of cell growth. In conditioned media the cells were removed from the media by centrifugation and conjugate was added to the media and incubated at 37° C. for 0.25, 24 and 72 hours. Proteins and large molecules were removed via precipitation with a 5:4:1 v:v:v mixture of Acetonitrile:methanol:1% Formic acid and subsequent centrifugation. The supernatant (100 uL injection volume) was subjected to HPLC analysis on DNA Pac PA 200 (Dionex, USA) column in a gradient of 400 mM ammonium acetate in 20% acetonitrile (3-40% over 10 minutes).

The subject of data set [3] is pancreatic cell lines (Capan2, Panc1 and MiaPaca). Briefly: MTS proliferation assay, pancreatic cancer cell lines. The settings on record: 48 hours, FIG. 1. The data set is classed as cell-based. As to the method: (§2) In a 96-well plate, each well was prepared to contain 50 uL of 50,000 cells in media (HyClone IMDM Modified+4 mM L-Glu, HEPES with 10% Fetal Bovine Serum) to which was added 50 uL media containing either the free nucleoside (cytarabine or gemcitabine) or the conjugate (compound 3 or 16) that achieved the following final concentrations: 0, 0.1, 0.2, 0.5, 1, 3, 10, or 100 uM. The cells were incubated at 37° C. with 5% CO2 for 24, 48 or 72 hours (data trends similarly for all incubation periods while the 48 hour data is shown). The Promega MTS based proliferation assay kit (Promega; CellTiter 96® AQueous Non-Radioactive Cell Proliferation Assay (MTS)) was used as per manufacturer's instructions. In short, to each well 100 uL of MTS/PMS reagent was added and allowed to incubate for approximately 2 hours at 37° C. to achieve a colorimetric indication of active cell metabolism. This was quantitated by reading the visible absorption at 415 nm. The data (FIG. 1) was normalized to the absorption range defined from minimal absorbance (media absent cells and drug present), to maximum absorbance (media with cells in the absence of drug). All points were measured in triplicate and averaged before normalization to a 0-100% range. Data was plotted (FIG. 1) as percent inhibition versus log of the compound concentration. […]

Data set [4] has as its system 22Rv1 cells. The data set is described as follows: Pulse chase (10 or 60 minute exposure) MTS proliferation assay, 22Rv1. It counts as cell-based. The settings on record: 48 hours in fresh media. The method, then: as §1
This was tested for with a 10 or 60 minute pulsed exposure of 22Rv1 cells to compounds, followed by 48 hours of incubation in fresh media. […]

The next data set concerns Capan2 cells. Briefly: Pulse chase (60 minute exposure) MTS proliferation assay, Capan2. It counts as cell-based, human. The settings on record: 60 minute pulse, all concentrations tested.
In data set [5] the test system is subcutaneous Capan-2 tumors. The data set is described as follows: Mouse xenograft model of pancreatic cancer. The conditions noted are these: nude mice, Capan-2 subcutaneous, 20 mg/kg 3-times per week. The data set is classed as in vivo. As to the method: FIG. 4 illustrates the conjugate of vitamin B6 and gemcitabine is efficacious in a mouse model of human pancreatic cancer. In this model, immune compromised nude mice were injected subcutaneously with the human pancreatic cell line Capan-2 (˜10^6 cells/100 ul). After tumor growth was detected the animals were randomized and either administered the isotonic saline vehicle control alone or with the gemcitabine conjugate (20 mg/kg; 3-times per week).

The subject of a further data set is PC3 prostate cancer line. Briefly: MTS proliferation assay, PC3 prostate cancer cells. The data set is classed as cell-based. The settings on record: 48 hours, FIG. 1. As to the method:
as §2

The term IC50 denotes the concentration that inhibits the measured activity by half. Low values mean higher potency, high ones lower potency. With `Cc1ncc(CO)c(CN[P@SP3](=O)(O)OC[C@H]2O[C@@H](n3ccc(N)nc3=O)C(O)C2O)c1O` (stereo partly drawn) [Compound 3, 5′-aracytidilic acid N-pyridoxylamide], the “fold more potent than araC” value with 22Rv1 cells [1] (48 hours, FIG. 1) is given as > 10 fold. The molecule also displayed an IC50 in the data set with 5TGM1 cells of 1000 nM. The “release of free cytarabine or pyridoxamine (HPLC)” value in data set [2] (isotonic saline, sterile media or conditioned media, 37° C., 0.25, 24 and 72 hours) was “neither free cytarabine nor free pyridoxamine (or any other pyridoxyl based compound) was detected”. In addition, the “stability in buffers and media” value in data set [2] is given as “stable”.

Consider `Cc1ncc(CO)c(CNP(=O)(O)OC[C@H]2O[C@@H](n3ccc(N)nc3=O)C(F)(F)C2O)c1O` (stereo partly drawn) [Compound 16, N-pyridoxylamide of 2′-Deoxy-2′,2′-difluoro-5′-cytidylic acid], for which the “fold more potent than Gem alone” value in data set [3] is 2-100 fold. The “fold more potent than Gem” value in the data set on 22Rv1 cells [1] (48 hours, FIG. 1) is reported as “up to 7 fold”. Further, the “decrease of proliferation beyond that of free gemcitabine” value in the data set on 22Rv1 cells [4] (100 uM pulse for 60 minutes) is on record as 40%. Moreover, the anti-proliferation after pulse result with 22Rv1 cells [4] (10 minute pulse) is “measurable anti-proliferation”. For the same molecule, the “effect of pulse compared to free Gem” value in the data set on Capan2 cells is listed as “more rapid effect”. Moreover, the “stability in buffers and media” value in data set [2] is on record as “stable”. Moreover, the “tumor growth relative to untreated growth” value in data set [5] is on record as “stabilized tumor growth”.

On to `Nc1ccn([C@@H]2O[C@H](CO)[C@@H](O)[C@@H]2O)c(=O)n1` [Cytarabine, reference compound], for which the IC50 in the data set on 5TGM1 cells came out at 500 nM.

Regarding `Nc1ccn([C@@H]2O[C@H](CO)[C@@H](O)C2(F)F)c(=O)n1` [Gemcitabine, 2′-Deoxy-2′,2′-difluorocytidine, reference compound], the effect on proliferation result in the data set with 22Rv1 cells [1] (48 hour exposure, 0.1-10 uM) was “stimulated proliferation”. Moreover, the “sensitivity to parent drug relative to conjugate” value in the data set with PC3 prostate cancer line was 3 fold. Besides, the stimulation of proliferation in the data set with 22Rv1 cells [4] (100 uM pulse) worked out at 10%.
